# Laboratory results: patent publication US20090208517A1, “Preparation Of Antigen-Presenting Human Gamma-Delta T Cells And Use In Immunotherapy” (priority 2004, published 2009)
# Test system: naïve CD4^+ αβ T cells
# Type: cell-based, human
substance,measurement,value
phytohemagglutinin [PHA],Vβ2^+ (%) responder cells,9%
same,selective expansion of Vβ2^+ T cells (in words),does not result in selective expansion of Vβ2^+ T cells
